Data as given in DBAASP.
≈ marks a conversion by molar mass, not a printed value. Where “and” joins values, the source holds several entries; their conditions need not be identical. Identical values can stand only once. One block for each molecule: values may come before it.

Legend:
Assay in all cases: ≥ marks a high value that may be exact or a test limit, other limits are often not marked, values filed in µg/mL are converted to µM
[1] = tested on: Escherichia coli ATCC 11775
[2] = tested on: Staphylococcus aureus ATCC 25923
[3] = tested on: Staphylococcus aureus ATCC 12600
[4] = tested on: Escherichia coli ATCC 25922
[5] = tested on: Staphylococcus aureus ATCC 12493
[6] = tested on: Candida albicans NCPF 1467
[7] = tested on: Escherichia coli NCTC 10418
[8] = tested on: Candida albicans ATCC 90028
[9] = tested on: Staphylococcus aureus NCTC 10788
[10] = tested on: Staphylococcus aureus NCTC 8325
[11] = tested on: Staphylococcus aureus
[12] = tested on: Escherichia coli W160-37
[13] = tested on: Pseudomonas aeruginosa
[14] = tested on: Stenotrophomonas maltophilia
[15] = tested on: Acinetobacter baumannii
[16] = tested on: Staphylococcus epidermidis RP62A
[17] = tested on: Escherichia coli ATCC 25726
[18] = tested on: Klebsiella pneumoniae ATCC 700603
[19] = tested on: Pseudomonas aeruginosa ATCC 27853
[20] = tested on: Staphylococcus epidermidis RP62A/1
[21] = tested on: Proteus mirabilis ATCC 25933
[22] = tested on: Staphylococcus aureus ATCC 29213
[23] = tested on: Botrytis cinerea
[24] = tested on: Candida albicans ATCC 10231
[25] = tested on: Staphylococcus aureus ATCC 15752
[26] = tested on: Pseudomonas putida ATCC 17426
[27] = tested on: Streptococcus mutans ATCC 25175
[28] = tested on: Cryptococcus neoformans ATCC 34881
[29] = tested on: Saccharomyces cerevisiae ATCC 44774
[30] = tested on: Escherichia coli ATCC 27325
[31] = tested on: Salmonella enterica subsp. enterica serovar Enteritidis ATCC 13076
[32] = tested on: Bacillus subtilis ATCC 62037
[33] = tested on: Escherichia coli IFO 12734
[34] = tested on: Staphylococcus aureus IFO 12732
[35] = tested on: Bacillus subtilis IFO 3513
[36] = tested on: Staphylococcus epidermidis NBRC 12933
[37] = tested on: Staphylococcus aureus NBRC 12732
[38] = tested on: Bacillus megaterium ATCC 19213
[39] = tested on: Bacillus subtilis NBRC 3513

SMILES: CC[C@H](C)[C@H](N)C(=O)N[C@@H](CCCCN)C(=O)N[C@@H](CC(C)C)C(=O)N[C@@H](CO)C(=O)N[C@@H](CCCCN)C(=O)N[C@@H](CCCCN)C(=O)N[C@H](C(=O)N[C@@H](CCCCN)C(=O)N[C@@H](CC(=O)O)C(=O)N[C@@H](CC(N)=O)C(=O)N[C@@H](CC(C)C)C(=O)N[C@@H](CCCCN)C(=O)N[C@@H](CCCCN)C(=O)N[C@H](C(=O)N[C@@H](CC(C)C)C(=O)N[C@@H](CCCCN)C(=O)NCC(=O)N[C@@H](C)C(=O)N[C@H](C(=O)N[C@@H](CCCCN)C(=O)NCC(=O)N[C@@H](C)C(=O)N[C@H](C(=O)N[C@@H](C)C(=O)N[C@H](C(=O)N[C@@H](C)C(=O)N[C@@H](CCCCN)C(=O)N[C@@H](CCSC)C(=O)N[C@H](C(N)=O)C(C)C)C(C)C)[C@@H](C)CC)[C@@H](C)CC)C(C)C)[C@@H](C)O [IKLSKKTKDNLKKVLKGAIKGAIAVAKMV]
MIC [14]: 1.6 µM (≈ 4.95 µg/mL) | MIC [15]: 3.1 µM (≈ 9.59 µg/mL) | MIC [2]: 3.1 µM (≈ 9.59 µg/mL) | MIC [16]: 1.6 µM (≈ 4.95 µg/mL) | MIC [17]: 3.1 µM (≈ 9.59 µg/mL) | MIC [8]: ≥ 100 µM | MIC [18]: 6.25 µM (≈ 19.3 µg/mL) | MIC [19]: 12.5 µM (≈ 38.7 µg/mL) | MIC [20]: 0.8 µM (≈ 2.48 µg/mL) | MIC [21]: ≥ 100 µM | MIC [22]: 3.1 µM (≈ 9.59 µg/mL)

SMILES: CC[C@H](C)[C@H](N)C(=O)N[C@@H](CC(N)=O)C(=O)N[C@@H](CC(C)C)C(=O)N[C@@H](CCCCN)C(=O)NCC(=O)N[C@@H](CC(C)C)C(=O)N[C@H](C(=O)N[C@@H](CCCCN)C(=O)N[C@@H](CCCCN)C(=O)N[C@H](C(=O)N[C@@H](C)C(=O)N[C@@H](CO)C(=O)N[C@@H](CC(C)C)C(=O)N[C@@H](CC(C)C)C(=O)N[C@H](C(=O)O)[C@@H](C)O)C(C)C)[C@@H](C)CC [INLKGLIKKVASLLT]
MIC [1]: 25 µM (≈ 40.3 µg/mL) | MIC [3]: ≥ 100 µM | MIC [23]: 5 µM (≈ 8.06 µg/mL) | MIC [24]: 100 µM (≈ 161 µg/mL)

SMILES: CC(C)[C@H](NC(=O)[C@H](CCCCN)NC(=O)CNC(=O)CNC(=O)[C@H](CCC(N)=O)NC(=O)[C@H](CCCCN)NC(=O)CNC(=O)[C@H](CCCN=C(N)N)NC(=O)CNC(=O)[C@@H](N)CCCCN)C(=O)N[C@@H](CCCN=C(N)N)C(=O)N[C@@H](C)C(=O)N[C@@H](CCCCN)C(=O)N[C@@H](C)C(=O)N[C@@H](CCCCN)C(=O)N[C@H](C(=O)N[C@@H](CCCN=C(N)N)C(=O)O)[C@@H](C)O [KGRGKQGGKVRAKAKTR]
MIC [25]: 2.19 µM (≈ 4 µg/mL) | MIC [26]: 0.548 µM (≈ 1 µg/mL) | MIC [27]: 1.1 µM (≈ 2 µg/mL) | MIC [28]: 0.548 µM (≈ 1 µg/mL) | MIC [29]: 0.548 µM (≈ 1 µg/mL) | MIC [24]: 0.548 µM (≈ 1 µg/mL) | MIC [30]: 0.548 µM (≈ 1 µg/mL) | MIC [31]: 2.19 µM (≈ 4 µg/mL) | MIC [32]: 0.548 µM (≈ 1 µg/mL)

SMILES: CC[C@H](C)[C@H](NC(=O)[C@@H]1CCCN1C(=O)[C@H](Cc1c[nH]c2ccccc12)NC(=O)[C@H](CCC(N)=O)NC(=O)[C@H](CCCCN)NC(=O)[C@H](CC(C)C)NC(=O)[C@H](CC(C)C)NC(=O)[C@@H](N)CCCCN)C(=O)NCC(=O)N[C@@H](CCCCN)C(=O)N[C@@H](CC(C)C)C(=O)N[C@@H](CC(C)C)C(=O)N[C@@H](CCCCN)C(=O)N[C@@H](CCCCN)C(=O)N[C@@H](CC(C)C)C(=O)N[C@@H](CC(C)C)C(=O)N[C@@H](CCCCN)C(=O)N[C@@H](CCCCN)C(=O)N[C@@H](CC(C)C)C(=O)N[C@@H](CC(C)C)C(=O)N[C@@H](CCCCN)C(=O)O [KLLKQWPIGKLLKKLLKKLLK]
MIC [25]: 0.198 µM (≈ 0.5 µg/mL) | MIC [26]: 0.395 µM (≈ 1 µg/mL) | MIC [27]: 0.395 µM (≈ 1 µg/mL) | MIC [28]: 0.395 µM (≈ 1 µg/mL) | MIC [29]: 0.395 µM (≈ 1 µg/mL) | MIC [24]: 0.395 µM (≈ 1 µg/mL) | MIC [30]: 0.198 µM (≈ 0.5 µg/mL) | MIC [31]: 0.395 µM (≈ 1 µg/mL) | MIC [32]: 0.395 µM (≈ 1 µg/mL)

SMILES: CC(C)C[C@H](NC(=O)[C@H](CCCCN)NC(=O)[C@H](CC(C)C)NC(=O)[C@H](CC(C)C)NC(=O)[C@H](Cc1c[nH]c2ccccc12)NC(=O)[C@@H](N)CCCN=C(N)N)C(=O)NCC(=O)N[C@@H](Cc1cnc[nH]1)C(=O)N[C@@H](Cc1cnc[nH]1)C(=O)NCC(=O)N[C@@H](CCCN=C(N)N)C(=O)O [RWLLKLGHHGR]
MIC [36]: ≥ 128 µM | MIC [37]: ≥ 64 µM | MIC [38]: ≥ 32 µM | MIC [39]: ≥ 64 µM

The next lines start with the values.

MIC [1]: 25 µM (≈ 55.9 µg/mL) | MIC [2]: > 60 µM | MIC [3]: 12.5 µM (≈ 28 µg/mL) | MIC [4]: > 60 µM and 100 µM | MIC [5]: ≥ 32 µM | MIC [6]: ≥ 32 µM | MIC [7]: ≥ 512 µM | MIC [8]: ≥ 100 µM | MIC [9]: ≥ 32 µM | MIC [10]: 13 µM (≈ 29.1 µg/mL)
SMILES: CC[C@H](C)[C@@H]1NC(=O)[C@H](CC(C)C)NC(=O)[C@@H](NC(=O)[C@H](Cc2ccccc2)NC(=O)[C@H](CC(C)C)NC(=O)[C@H](CCCCN)NC(=O)[C@@H]2CCCN2C(=O)[C@H](CC(C)C)NC(=O)[C@H](C)NC(=O)[C@H](C)NC(=O)[C@H](CC(C)C)NC(=O)[C@H](C)NC(=O)[C@H](CC(C)C)NC(=O)[C@H](CO)NC(=O)[C@H](CC(C)C)NC(=O)[C@@H](N)Cc2ccccc2)CSSC[C@@H](C(=O)O)NC(=O)[C@H](CCCCN)NC(=O)[C@H](CCCCN)NC(=O)[C@H](Cc2ccccc2)NC1=O [FLSLALAALPKLFCLIFKKC]

MIC [11]: 6.71 µM (≈ 9.99 µg/mL) | MIC [12]: 3.35 µM (≈ 5 µg/mL) | MIC [13]: 10.1 µM (≈ 15 µg/mL)
SMILES: CC[C@H](C)[C@H](NC(=O)CN)C(=O)N[C@@H](Cc1c[nH]c2ccccc12)C(=O)N[C@@H](CCCCN)C(=O)N[C@@H](CO)C(=O)N[C@@H](CC(C)C)C(=O)N[C@@H](Cc1ccccc1)C(=O)N[C@H](C(=O)N[C@@H](CCCCN)C(=O)N[C@@H](CC(C)C)C(=O)N[C@@H](CC(C)C)C(=O)N[C@@H](CCCCN)C(=O)NCC(N)=O)[C@@H](C)O [GIWKSLFTKLLKG]

MIC [33]: 14.2 µM (≈ 25 µg/mL) | MIC [34]: 3.55 µM (≈ 6.25 µg/mL) | MIC [35]: 3.55 µM (≈ 6.25 µg/mL)
SMILES: CC[C@H](C)[C@H](NC(=O)[C@H](CC(C)C)NC(=O)[C@@H]1CCCN1C(=O)[C@H](Cc1c[nH]c2ccccc12)NC(=O)[C@H](CCCCN)NC(=O)[C@H](Cc1c[nH]c2ccccc12)NC(=O)[C@@H]1CCCN1C(=O)[C@H](CC(C)C)NC(=O)[C@H](CC(C)C)NC(=O)[C@@H]1CCCN1C(=O)[C@H](Cc1c[nH]c2ccccc12)NC(=O)[C@H](CCCN=C(N)N)NC(=O)[C@@H](N)CCCN=C(N)N)C(N)=O [RRWPLLPWKWPLI]
